Laboratory results: article PMC8536644, “Enigmatic mechanism of the N-vinylpyrrolidone hepatocarcinogenicity in the rat” (Archives of Toxicology, 2021)
“And” between values parts separate entries of the source, which are not always exact repeats. Equal values may be shown once. Read-outs that look alike come from different tables or passages of the source.

Experiments:
rat liver cells [1] = experiment: Comet assay, conventional (no FPG), liver; conditions: for Hedgehogs/100 cells (mean ± SD) / TI (%) (mean ± SD) / TI (%), mean of medians from 2 slides: liver, no FPG, 5 days; for TI (%), mean of medians from 2 slides: individual animals
Description: (§1) Animals were anesthetized by 3.5% isoflurane (approximately 3 min, evaporator Dräger Vapor 19.3) and then killed by cervical dislocation. The liver was removed and its left lateral lobe used for the Comet assay. The remainder of the liver was washed in saline and then in two aliquots shock frozen in liquid nitrogen and stored at − 80 °C for later examinations. Subsequently the lung was removed from the dead animal. Its left lobe was used for the Comet assay and the remainder treated as described above for the liver. Thereafter the femora were removed for the preparation of the bone marrow.
(§2) The Comet assay was performed under alkaline conditions according to the principles described by Singh et al. ([1988]) and Tice et al. ([2000]).
(§3) Liver and lung cells were obtained essentially as described by Hartmann et al. ([2004]) and by the Japanese Center for the Validation of Alternative Methods (JaCVAM [2009]). Single cells were obtained within 1 h after killing of the animals in order to minimize DNA damage during the preparation.
(§4) The organ parts (see above) were washed in mincing buffer (50 mM EDTA in HBSS [without Ca^2+ and Mg^2+] pH 7.5: DMSO 9:1 (v/v), the latter added shortly before use, stored at 4 °C), cut into 1 to 2-mm pieces in ice-cold mincing buffer and transferred to a cell sieve with 70-µm pores. The viability of the cell suspension was evaluated by the Trypan Blue Assay (Strober [2001]).
(§5) 100 µL of the obtained cell suspension was mixed at 37 °C with 900 µL Low Melting Agarose (LMA) (0.7% agarose in phosphate-buffered saline [PBS] [Biochrom, Berlin, Germany] without Ca^2+ and Mg^2+). 100 µL of this mixture was transferred to a slide, which had been coated with Normal Melting Agarose (NMA) (0.6% agarose in PBS without Ca^2+ and Mg^2+). The slides were protected with a cover slip and the agarose was hardened at approximately 4 °C. The cover slips were then removed and the slides put over night at 4 °C into lysis buffer (2.5 M NaCl, 125 mM NaOH, 127 mM EDTA, 10 mM Tris/NaOH, pH 10; 1% Triton X-100 and 10% DMSO (v/v), the latter two added before use) in order to lyse the cell membrane, nuclear membrane and remove the histone.
(§6) The then following procedures were performed in a shaded room to minimize UV-mediated DNA damage during the procedures.
(§7) Remaining lysis buffer or FPG buffer was removed by immersing/washing the slides in PBS (without Ca^2+ and Mg^2+).
(§8) The slides were then placed into the electrophoresis chamber, which was cooled and protected from light. Slides were covered with electrophoresis buffer (0.3 M NaOH, 1 mM EDTA, pH > 13) carefully avoiding air bubbles. The DNA was allowed to unwind (20 min). Thereafter the electrophoresis was started (25 V, 300 mA, […], 30 min). The slides were then washed (2 times 5 min) in neutralization buffer (0.4 M Tris/HCl, pH 7.5), dehydrated and fixed in 100% ethanol (1 min), dried at room temperature overnight and stored at room temperature protected from dust.
(§9) Quantitative evaluation of the Comet assays was performed by fluorescence microscopy after DNA staining with ethidium bromide.

rat liver cells [2] = experiment: Comet assay in presence of FPG, liver; conditions: liver, with FPG, 5 days; for TI (%), mean of medians from 2 slides: individual animals
Description: as §1, §2, §3, §4, §5, §6
Those slides which were destined to be treated with the DNA base excision repair enzyme FPG (Sigma Aldrich, Steinheim, Germany) were washed (3 times for 5 min) with FPG buffer (0.04 M HEPES, 0.5 mM EDTA, 0.1 M KCl, pH 8; add shortly before use bovine serum albumin [BSA] to a final concentration of 0.02%). Subsequently 50 µL FPG-enzyme-buffer (prepared shortly prior to use by 30-fold dilution of the following suspension in FPG buffer: 7 µL FPG-enzyme (14 U) and 70 µL glycerol in 623 µL FPG-Puffer, stored at − 80 °C) was pipetted on the slide which was covered with a cover slide and incubated for 30 min at 37 °C while being placed on a humid filter paper. After hardening of the agarose cover slips were removed.
as §7

[3] = Trypan Blue viability of the single cell suspension, lung; type: in vivo, rat; conditions: rat, inhaled
rat lung cells = experiment: Comet assay, conventional (no FPG), lung; conditions: for Hedgehogs/100 cells (mean ± SD) / TI (%) (mean ± SD) / TI (%), mean of medians from 2 slides: lung, no FPG, 5 days; for TI (%), mean of medians from 2 slides: individual animals
Description: as §1, §2, §3, §4, §5, §6, §7, §8, §9

## C=CN1CCCC1=O [NVP, N-vinylpyrrolidone]
Rat liver cells [1]; NVP-treated liver cells, with or without FPG
  Hedgehogs: 1–5%
Rat liver cells [1]; female, 5 ppm inhalation
  Hedgehogs/100 cells (mean ± SD): 3 ± 3 /100 cells
  TI (%) (mean ± SD): 1.0 ± 0.40%
  TI (%), mean of medians from 2 slides: 0.9% and 1.1% and 1.7% and 0.8% and 0.6%
Rat liver cells [1]; female, 10 ppm inhalation
  Hedgehogs/100 cells (mean ± SD): 4 ± 4 /100 cells
  TI (%) (mean ± SD): 0.9 ± 0.48%
  TI (%), mean of medians from 2 slides: 1.3% and 0.6% and 0.5% and 1.4% and 0.3%
Rat liver cells [1]; female, 20 ppm inhalation
  Hedgehogs/100 cells (mean ± SD): 3 ± 2 /100 cells
  TI (%) (mean ± SD): 0.7 ± 0.34%
Rat liver cells [1]; male, 5 ppm inhalation
  Hedgehogs/100 cells (mean ± SD): 3 ± 2 /100 cells
  TI (%) (mean ± SD): 0.9 ± 0.22%
  TI (%), mean of medians from 2 slides: 1.2% and 0.9% and 0.6% and 0.7% and 1.1%
Rat liver cells [1]; male, 10 ppm inhalation
  Hedgehogs/100 cells (mean ± SD): 3 ± 1 /100 cells
  TI (%) (mean ± SD): 1.0 ± 0.68%
  TI (%), mean of medians from 2 slides: 0.7% and 2.4% and 1.0% and 0.6%
Rat liver cells [1]; male, 20 ppm inhalation
  Hedgehogs/100 cells (mean ± SD): 3 ± 1 /100 cells
  TI (%) (mean ± SD): 0.7 ± 0.34%
  TI (%), mean of medians from 2 slides: 1.2% and 0.8% and 0.5% and 1.0% and 0.3%
Rat liver cells [2]; female, 5 ppm inhalation
  Hedgehogs/100 cells (mean ± SD): 4 ± 2 /100 cells
  TI (%), mean of medians from 2 slides: 6.5% and 8.4% and 9.0% and 9.3% and 5.6% and 7.1%
Rat liver cells [2]; female, 10 ppm inhalation
  Hedgehogs/100 cells (mean ± SD): 3 ± 2 /100 cells
  TI (%) (mean ± SD): 7.9 ± 2.74%
  TI (%), mean of medians from 2 slides: 5.5% and 10.7% and 5.6% and 5.3% and 9.4% and 11.0%
Rat liver cells [2]; female, 20 ppm inhalation
  Hedgehogs/100 cells (mean ± SD): 4 ± 2 /100 cells
  TI (%) (mean ± SD): 7.0 ± 1.97%
  TI (%), mean of medians from 2 slides: 9.2% and 5.2% and 8.3% and 6.3% and 8.6% and 4.4%
Rat liver cells [2]; male, 5 ppm inhalation
  Hedgehogs/100 cells (mean ± SD): 1 ± 1 /100 cells
  TI (%) (mean ± SD): 5.3 ± 1.09%
  TI (%), mean of medians from 2 slides: 4.3% and 5.8% and 5.2% and 4.0% and 7.0% and 5.7%
Rat liver cells [2]; male, 10 ppm inhalation
  Hedgehogs/100 cells (mean ± SD): 2 ± 1 /100 cells
  TI (%) (mean ± SD): 6.1 ± 1.67%
  TI (%), mean of medians from 2 slides: 8.3% and 7.5% and 3.7% and 4.9% and 6.5% and 5.8%
Rat liver cells [2]; male, 20 ppm inhalation
  Hedgehogs/100 cells (mean ± SD): 2 ± 1 /100 cells
  TI (%) (mean ± SD): 5.0 ± 1.09%
  TI (%), mean of medians from 2 slides: 6.8% and 4.4% and 5.0% and 4.7% and 3.6% and 5.6%
[3]; both sexes, Wistar Crl:WI (Han), lung single cell suspension, lung cells, NVP-exposed, read-out: Viability, range of the individual animals
  viability at 5 days: 93 to 100%
[3]; female, Wistar, lung, 5 ppm, lung, female, Comet with FPG (Table 11), 5 ppm inhalation, 5 days, individual animals, read-out: Individual viability (%)
  viability at 5 days: 99%
[3]; female, Wistar, lung, 5 ppm, lung, female, Comet with FPG (Table 11), 5 ppm inhalation, 5 days, read-out: Viability (%) (mean ± SD)
  viability at 5 days: 99 ± 1%
[3]; female, Wistar, lung, 5 ppm, lung, female, no FPG, 5 ppm inhalation, 5 days, individual animals, read-out: Individual viability (%)
  viability at 5 days: 99%
[3]; female, Wistar, lung, 5 ppm, lung, female, no FPG, 5 ppm inhalation, 5 days, read-out: Viability (%) (mean ± SD)
  viability at 5 days: 99 ± 1%
[3]; female, Wistar, lung, 10 ppm, lung, female, Comet with FPG (Table 11), 10 ppm inhalation, 5 days, individual animals, read-out: Individual viability (%)
  viability at 5 days: 98%
[3]; female, Wistar, lung, 10 ppm, lung, female, Comet with FPG (Table 11), 10 ppm inhalation, 5 days, read-out: Viability (%) (mean ± SD)
  viability at 5 days: 98 ± 1%
[3]; female, Wistar, lung, 10 ppm, lung, female, no FPG, 10 ppm inhalation, 5 days, individual animals, read-out: Individual viability (%)
  viability at 5 days: 98%
[3]; female, Wistar, lung, 10 ppm, lung, female, no FPG, 10 ppm inhalation, 5 days, read-out: Viability (%) (mean ± SD)
  viability at 5 days: 98 ± 1%
[3]; female, Wistar, lung, 20 ppm, lung, female, Comet with FPG (Table 11), 20 ppm inhalation, 5 days, individual animals, read-out: Individual viability (%)
  viability at 5 days: 98%
[3]; female, Wistar, lung, 20 ppm, lung, female, Comet with FPG (Table 11), 20 ppm inhalation, 5 days, read-out: Viability (%) (mean ± SD)
  viability at 5 days: 98 ± 1%
[3]; female, Wistar, lung, 20 ppm, lung, female, no FPG, 20 ppm inhalation, 5 days, individual animals, read-out: Individual viability (%)
  viability at 5 days: 98%
[3]; female, Wistar, lung, 20 ppm, lung, female, no FPG, 20 ppm inhalation, 5 days, read-out: Viability (%) (mean ± SD)
  viability at 5 days: 98 ± 1%
[3]; male, Wistar, lung, 5 ppm, lung, male, Comet with FPG (Table 10), 5 ppm inhalation, 5 days, individual animals, read-out: Individual viability (%)
  viability at 5 days: 97%
[3]; male, Wistar, lung, 5 ppm, lung, male, Comet with FPG (Table 10), 5 ppm inhalation, 5 days, read-out: Viability (%) (mean ± SD)
  viability at 5 days: 98 ± 1%
[3]; male, Wistar, lung, 5 ppm, lung, male, no FPG, 5 ppm inhalation, 5 days, individual animals, read-out: Individual viability (%)
  viability at 5 days: 97%
[3]; male, Wistar, lung, 5 ppm, lung, male, no FPG, 5 ppm inhalation, 5 days, read-out: Viability (%) (mean ± SD)
  viability at 5 days: 98 ± 1%
[3]; male, Wistar, lung, 10 ppm, lung, male, Comet with FPG (Table 10), 10 ppm inhalation, 5 days, individual animals, read-out: Individual viability (%)
  viability at 5 days: 99%
[3]; male, Wistar, lung, 10 ppm, lung, male, Comet with FPG (Table 10), 10 ppm inhalation, 5 days, read-out: Viability (%) (mean ± SD)
  viability at 5 days: 98 ± 2%
[3]; male, Wistar, lung, 10 ppm, lung, male, no FPG, 10 ppm inhalation, 5 days, individual animals, read-out: Individual viability (%)
  viability at 5 days: 99%
[3]; male, Wistar, lung, 10 ppm, lung, male, no FPG, 10 ppm inhalation, 5 days, read-out: Viability (%) (mean ± SD)
  viability at 5 days: 98 ± 2%
[3]; male, Wistar, lung, 20 ppm, lung, male, Comet with FPG (Table 10), 20 ppm inhalation, 5 days, individual animals, read-out: Individual viability (%)
  viability at 5 days: 100%
[3]; male, Wistar, lung, 20 ppm, lung, male, Comet with FPG (Table 10), 20 ppm inhalation, 5 days, read-out: Viability (%) (mean ± SD)
  viability at 5 days: 99 ± 1%
[3]; male, Wistar, lung, 20 ppm, lung, male, no FPG, 20 ppm inhalation, 5 days, individual animals, read-out: Individual viability (%)
  viability at 5 days: 100%
[3]; male, Wistar, lung, 20 ppm, lung, male, no FPG, 20 ppm inhalation, 5 days, read-out: Viability (%) (mean ± SD)
  viability at 5 days: 99 ± 1%
Rat lung cells; NVP-treated lung cells, with or without FPG
  Hedgehogs: 1–7%
Rat lung cells; female, 5 ppm inhalation
  Hedgehogs/100 cells (mean ± SD): 2 ± 1 /100 cells
  TI (%) (mean ± SD): 1.2 ± 0.34%
  TI (%), mean of medians from 2 slides: 0.7% and 1.2% and 1.5% and 1.6% and 1.3%
Rat lung cells; female, 10 ppm inhalation
  Hedgehogs/100 cells (mean ± SD): 2 ± 2 /100 cells
  TI (%), mean of medians from 2 slides: 0.4% and 0.9% and 0.5% and 0.6%
Rat lung cells; female, 20 ppm inhalation
  Hedgehogs/100 cells (mean ± SD): 2 ± 3 /100 cells
  TI (%) (mean ± SD): 1.0 ± 0.32%
  TI (%), mean of medians from 2 slides: 0.7% and 0.9% and 1.2% and 1.0% and 1.6%
Rat lung cells; male, 5 ppm inhalation
  Hedgehogs/100 cells (mean ± SD): 4 ± 3 /100 cells
  TI (%), mean of medians from 2 slides: 1.8% and 0.6% and 0.7% and 0.8% and 1.9%
Rat lung cells; male, 10 ppm inhalation
  Hedgehogs/100 cells (mean ± SD): 7 ± 5 /100 cells
  TI (%) (mean ± SD): 1.8 ± 1.94%
  TI (%), mean of medians from 2 slides: 5.7% and 1.3% and 1.2% and 0.7% and 1.0% and 1.1%
Rat lung cells; male, 20 ppm inhalation
  Hedgehogs/100 cells (mean ± SD): 3 ± 1 /100 cells
  TI (%) (mean ± SD): 0.6 ± 0.28%
  TI (%), mean of medians from 2 slides: 0.4% and 0.9% and 0.6% and 0.3%
